System: CFTR mediated chloride current in Primary CF airway epithelial cells
Experiment: Equivalent current assay in primary CF airway epithelial cells (NAUC)
Assay type: cell-based
Conditions: 24 h treatment, stimulated with forskolin and VX770, normalized to positive control 3 μM VX809
Description: Primary CF airway epithelial cells were obtained from the UNC Cystic Fibrosis Tissue Procurement and Cell Culture Core. The cells are grown at 37° C. in a Heracell 150i incubator using growth media (BEGM, Fischer). Cells were then transferred to differentiation media (ALI, UNC) for a minimum of 4 weeks on coated Costar snapwells. Two days before the Ussing assay the mucus on the apical surface of the cells was aspirated after incubating with 200 μL of differentiation Media for at least thirty (30) minutes. One day before the Ussing assay test compounds were added to the basolateral surface of the cells at various test concentrations dissolved in DMSO. Duplicate wells were prepared giving a n=3 or n=4 protocol.
Cells were treated for 24 hours with various combinations and concentrations of the test articles, reference standard (3 μM VX809, positive control). Compounds stock solutions were prepared in DMSO and diluted 1/1000 into ALI media to their final assay concentration. Cells were treated with combination solutions (2 mL of each dilution) and incubated at 37° C. for 24 h.
For the equivalent current assay, cells on four Transwell (24-well) plates were treated. Each Transwell plate was filled with 200 μl of HBS on the apical surface and 2 ml on the basolateral surface. Plates were placed horizontally in a heated mount at 37° C., and equilibrated for several minutes. Resting current was measured for 15 min and then blocked by the apical addition of 5 μM benzamil. After 20 min, 10 μM forskolin and 1 μM VX770 were added to both the apical and basolateral side to stimulate CFTR. An increase in chloride current is seen as an upward deflection of the trace. After another 30 min, CFTR-172 (a CFTR inhibitor, 2 μM) and/or bumetanide (20 μM) was added to block CFTR mediated chloride current.
The raw data, current vs. time for the Ussing chamber (sampling interval: 10 s) and voltage vs. time and resistance vs. time for the equivalent current assay (sampling interval: 5 minutes) were transferred to Excel (Microsoft Office Professional, version 14.0.7106.5003) for analysis. CFTR specific current was measured as the average amplitude of the increase in current elicited upon addition forskolin and ending upon addition of the CFTR channel specific blocker CFTR-172. This average is equivalent to the sum of the average forskolin activated and the average VX770-potentiated currents. The average current measured in vehicle (0.1% DMSO) treated cells, Iv, was subtracted from the current for the test article, ITA, or from the corrector reference standard VX809 (3 μM ISTD. For replicate measurements, the average vehicle subtracted response for the test article, was normalized to the average vehicle subtracted […] response of the reference corrector VX809 (3 μM). INSC=(ITA−IV)(ave)/(ISTD−IV)(ave) (Equation 1)
A second endpoint, for the equivalent current assay, evaluated was NAUC, the normalized area under the curve (AUC) measuring the response after addition of forskolin and VX770 to the time point right before the addition of the CFTR inhibitor. The AUC is effectively the average response multiplied by the duration of the response. The AUC of the test article, AUCTA was then corrected by subtracting the average vehicle response, AUCV,ave over the same time range, and normalized as for the inhibitor-sensitive current to the difference of the corrector reference standard VX809 (3 μM VX809r,ave and the vehicle response: NAUCTA=[AUCTA−AUCV,ave]/[AUCVx809r,ave−AUCV,ave](Equation 2).
The normalized value for DMSO is 0.0 and for VX-809 alone is 1.0. Combinations of compounds with VX-809 that give normalized values greater than 1.0 show activity in the combination assay. A value of 2 means the test compound doubles the effect to VX-809 alone.
Experiments were run with a minimum of n=4 replicates per concentration. […]

| SMILES | NAUC (normalized area under the curve), Test Conc 3 uM | NAUC (normalized area under the curve), Test Conc 10 uM |
| --- | --- | --- |
| O=C(NCC(c1ccccc1)c1ccccc1)c1cc(-c2ccc(F)cc2)on1 [Example 32] | + (NAUC “+” refers to an observed NAUC <140% of positive control) | + (NAUC “+” refers to an observed NAUC <140% of positive control) |
| O=C(NCC1CCCCC1)c1cc(-c2ccc(F)cc2)on1 [Example 33] | + (NAUC “+” refers to an observed NAUC <140% of positive control) | + (NAUC “+” refers to an observed NAUC <140% of positive control) |
| O=C(NCCOc1ccccc1)c1cc(-c2ccc(F)cc2)on1 [Example 34] | + (NAUC “+” refers to an observed NAUC <140% of positive control) | + (NAUC “+” refers to an observed NAUC <140% of positive control) |
| O=C(NCC(F)(F)F)c1cc(-c2ccc(F)cc2)on1 [Example 35] | ++ (NAUC “++” refers to an observed NAUC 170-140% of positive control) | +++ (NAUC “+++” refers to an observed NAUC >170% of positive control) |
| O=C(NCC1CC1)c1cc(-c2ccc(F)cc2)on1 [Example 36, N-(cyclopropylmethyl)-5-(4-fluorophenyl)isoxazole-3-carboxamide] | ++ (NAUC “++” refers to an observed NAUC 170-140% of positive control) | +++ (NAUC “+++” refers to an observed NAUC >170% of positive control) |
| O=C(NCCN1CCOCC1)c1cc(-c2ccc(F)cc2)on1 [Example 37, 5-(4-fluorophenyl)-N-(2-morpholinoethyl)isoxazole-3-carboxamide] | + (NAUC “+” refers to an observed NAUC <140% of positive control) | ++ (NAUC “++” refers to an observed NAUC 170-140% of positive control) |
| O=C(NCCCCC(=O)N1CCC1)c1cc(-c2ccccc2)on1 [Example 38, N-(5-(azetidin-1-yl)-5-oxopentyl)-5-phenylisoxazole-3-carboxamide] | +++ (NAUC “+++” refers to an observed NAUC >170% of positive control) | +++ (NAUC “+++” refers to an observed NAUC >170% of positive control) |
| CN1CCN(C(=O)CCCCNC(=O)c2cc(-c3ccccc3)on2)CC1 [Example 43, N-(5-(4-methylpiperazin-1-yl)-5-oxopentyl)-5-phenylisoxazole-3-carboxamide] | +++ (NAUC “+++” refers to an observed NAUC >170% of positive control) | +++ (NAUC “+++” refers to an observed NAUC >170% of positive control) |
| O=C(NCCC(=O)N1CCC1)c1cc(-c2ccccc2)on1 [Example 44, N-(3-(azetidin-1-yl)-3-oxopropyl)-5-phenylisoxazole-3-carboxamide] | +++ (NAUC “+++” refers to an observed NAUC >170% of positive control) | +++ (NAUC “+++” refers to an observed NAUC >170% of positive control) |
| CN1CCN(C(=O)CCNC(=O)c2cc(-c3ccccc3)on2)CC1 [Example 48] | +++ (NAUC “+++” refers to an observed NAUC >170% of positive control) | +++ (NAUC “+++” refers to an observed NAUC >170% of positive control) |
| O=C(NCCC(=O)N1CCC1)c1cc(-c2ccc(F)cc2)no1 [Example 51, N-(3-(azetidin-1-yl)-3-oxopropyl)-3-(4-fluorophenyl)isoxazole-5-carboxamide] | ++ (NAUC “++” refers to an observed NAUC 170-140% of positive control) | +++ (NAUC “+++” refers to an observed NAUC >170% of positive control) |
| CN1CCN(C(=O)CCNC(=O)c2cc(-c3ccc(F)cc3)no2)CC1 [Example 52, 3-(4-fluorophenyl)-N-(3-(4-methylpiperazin-1-yl)-3-oxopropyl)isoxazole-5-carboxamide] | ++ (NAUC “++” refers to an observed NAUC 170-140% of positive control) | +++ (NAUC “+++” refers to an observed NAUC >170% of positive control) |
| O=C(NCCCCC(=O)N1CCC1)c1cc(-c2ccc(F)cc2)no1 [Example 53, N-(5-(azetidin-1-yl)-5-oxopentyl)-3-(4-fluorophenyl)isoxazole-5-carboxamide] | ++ (NAUC “++” refers to an observed NAUC 170-140% of positive control) | +++ (NAUC “+++” refers to an observed NAUC >170% of positive control) |
| CN1CCN(C(=O)CCCCNC(=O)c2cc(-c3ccc(F)cc3)no2)CC1 [Example 54, 3-(4-fluorophenyl)-N-(5-(4-methylpiperazin-1-yl)-5-oxopentyl)isoxazole-5-carboxamide] | ++ (NAUC “++” refers to an observed NAUC 170-140% of positive control) | +++ (NAUC “+++” refers to an observed NAUC >170% of positive control) |
| O=C(NCCCCC(=O)N1CCC1)c1cc(-c2ccccc2)no1 [Example 55, N-(5-(azetidin-1-yl)-5-oxopentyl)-3-phenylisoxazole-5-carboxamide] | ++ (NAUC “++” refers to an observed NAUC 170-140% of positive control) | +++ (NAUC “+++” refers to an observed NAUC >170% of positive control) |
| CN1CCN(C(=O)CCCCNC(=O)c2cc(-c3ccccc3)no2)CC1 [Example 59] | +++ (NAUC “+++” refers to an observed NAUC >170% of positive control) | +++ (NAUC “+++” refers to an observed NAUC >170% of positive control) |
| O=C(NCCC(=O)N1CCC1)c1cc(-c2ccccc2)no1 [Example 60, N-(3-(azetidin-1-yl)-3-oxopropyl)-3-phenylisoxazole-5-carboxamide] | +++ (NAUC “+++” refers to an observed NAUC >170% of positive control) | +++ (NAUC “+++” refers to an observed NAUC >170% of positive control) |
| CN1CCN(C(=O)CCNC(=O)c2cc(-c3ccccc3)no2)CC1 [Example 63] | +++ (NAUC “+++” refers to an observed NAUC >170% of positive control) | +++ (NAUC “+++” refers to an observed NAUC >170% of positive control) |

Reference: patent US9855249B2, “Isoxazole compounds and methods for the treatment of cystic fibrosis” (FLATLEY DISCOVERY LAB, LLC, priority 2014, dated 2018)
